Molecular target: JAK1 (recombinant purified GST-tagged catalytic domain) (Homo sapiens (Human), UniProt P23458)
Experiment: biochemical
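Note: biochemical assay with HTRF read-out.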

Chain of JAK1 (recombinant purified GST-tagged catalytic domain) (P23458 875-1153): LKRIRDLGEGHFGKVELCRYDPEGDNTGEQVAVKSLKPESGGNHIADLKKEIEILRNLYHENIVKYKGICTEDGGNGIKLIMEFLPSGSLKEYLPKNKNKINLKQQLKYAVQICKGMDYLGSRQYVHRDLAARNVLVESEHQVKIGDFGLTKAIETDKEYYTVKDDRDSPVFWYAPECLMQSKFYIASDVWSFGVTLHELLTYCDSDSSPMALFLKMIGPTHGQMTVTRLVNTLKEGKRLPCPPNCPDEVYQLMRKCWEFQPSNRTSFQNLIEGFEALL

Q: `C=C[C@]1(O)CC[C@H](n2cc(C(N)=O)c(Nc3ccc(Cl)cc3)n2)[C@@H](C#N)C1` (single isomer, unassigned) [Example 32-5, 3-[(4-chlorophenyl)amino]-1-[(1S,2S,4S or 1R,2R,4R)-2-cyano-4-ethenyl-4-hydroxycyclohexyl]-1H-pyrazole-4-carboxamide] was tested. Which IC50 did it give?
A: 3 nM

Q: `CC(C)(C(=O)O)c1ccc(Nc2nn([C@H]3CCC(N4CCC4)C[C@@H]3C#N)cc2C(N)=O)cc1` (single isomer, unassigned) [Example 28-72, 2-[4-({1-[(1S,2S or 1R,2R)-4-azetidin-1-yl-2-cyanocyclohexyl]-4-carbamoyl-1H-pyrazol-3-yl}amino)phenyl]-2-methylpropanoic acid] was tested. Which IC50 did it give?
A: 0.45 nM

Q: `CC(C)(C(=O)O)c1ccc(Nc2nn([C@H]3CC[C@@H](N4CCC4)C[C@@H]3C#N)cc2C(N)=O)cc1` (single isomer, unassigned) [Example 28-80, 2-[4-({1-[(1S,2S,4R or 1R,2R,4S)-4-azetidin-1-yl-2-cyanocyclohexyl]-4-carbamoyl-1H-pyrazol-3-yl}amino)phenyl]-2-methylpropanoic acid] was tested. Which IC50 did it give?
A: 0.3 nM

Q: Which IC50 does the source give for `N#C[C@@H]1C[C@H](C(=O)N2CC(F)C2)CC[C@H]1n1cc(C(N)=O)c(Nc2ccc(Cl)cc2)n1` (single isomer, unassigned) [Example 35-33, 3-[(4-chlorophenyl)amino]-1-{(1R,2R,4R or 1S,2S,4S)-2-cyano-4-[(3-fluoroazetidin-1-yl)carbonyl]cyclohexyl}-1H-pyrazole-4-carboxamide] here?
A: 9 nM

Q: How did the IC50 turn out when `N#C[C@H]1C[C@@H](N2CC(O)C2)CC[C@@H]1n1cc(C(N)=O)c(Nc2ccc(S(=O)(=O)C(F)(F)F)cc2)n1` (single isomer, unassigned) [Example 28-151, 1-[(1S,2S,4S or 1R,2R,4R)-2-cyano-4-(3-hydroxyazetidin-1-yl)cyclohexyl]-3-({4-[(trifluoro-methyl)sulfonyl]phenyl}amino)-1H-pyrazole-4-carboxamide] was run?
A: 0.13 nM

Q: How did the IC50 turn out when `COCC(C)(C)N(C)[C@H]1CCC(n2cc(C(N)=O)c(Nc3ccc(Cl)cc3)n2)[C@@H](C#N)C1` (single isomer, unassigned) [Example 28-234, 3-[(4-chlorophenyl)amino]-1-{(1S,2S,4S or 1R,2R,4R)-2-cyano-4-[(2-methoxy-1,1-dimethylethyl)(methyl)ami-no]cyclohexyl}-1H-pyrazole-4-carboxamide] was run?
A: 2 nM

Q: With `C[C@](O)(c1ccc(Nc2nn([C@H]3CCCC[C@@H]3C#N)cc2C(N)=O)cn1)C(F)(F)F` (single isomer, unassigned) [Example 17-34, 1-[(1S,2S or 1R,2R)-2-cyanocyclohexyl]-3-({6-[(1S or 1R)-2,2,2-trifluoro-1-hydroxy-1-methylethyl]pyridin-3-yl}amino)-1H-pyrazole-4-carboxamide] as the compound, how does the IC50 read?
A: 2 nM

Q: With `N#C[C@@H]1CC2(CCC1n1cc(C(N)=O)c(Nc3ccnc(F)c3)n1)CC2` (mixture of isomers) [Example 11-7, 1-((5R,6R and 5S,6S)-5-cyanospiro[2.5]octan-6-yl)-3-((2-fluoropyridin-4-yl)amino)-1H-pyrazole-4-carboxamide] as the compound, how does the IC50 read?
A: 5 nM

Q: For `CC(C)(C(=O)NCC(F)(F)F)c1ccc(Nc2nn([C@H]3CCCC[C@@H]3C#N)cc2C(N)=O)cc1` (single isomer, unassigned) [Example 17-57, 1-[(1S,2S or 1R,2R)-2-cyanocyclohexyl]-3-[(4-{1,1-dimethyl-2-oxo-2-[(2,2,2-trifluoroethyl)amino]ethyl}phenyl)amino]-1H-pyrazole-4-carboxamide], which IC50 is on record?
A: 0.2 nM

Q: How did the IC50 turn out when `COCC(C)N[C@H]1CCC(n2cc(C(N)=O)c(Nc3ccc(Cl)cc3)n2)[C@@H](C#N)C1` (single isomer, unassigned) [Example 28-238, 3-[(4-chlorophenyl)amino]-1-[(1S,2S,4S or 1R,2R,4R)-2-cyano-4-{[(1S)-2-methoxy-1-methylethyl]amino}cyclohexyl]-1H-pyrazole-4-carboxamide] was run?
A: 2 nM

Q: How did the IC50 turn out when `CC(C)(C)OC(=O)[C@H]1CCC(n2cc(C(N)=O)c(Nc3ccc(F)cc3)n2)[C@@H](C#N)C1` (mixture of isomers) [Example 7-1, tert-Butyl (1S,3S,4S and 1R,3R,4R)-4-{4-carbamoyl-3-[(4-fluorophenyl)amino]-1H-pyrazol-1-yl}-3-cyanocyclohexanecarboxylate] was run?
A: 17 nM

Q: With `CN(C)[C@@H]1CC[C@H](n2cc(C(N)=O)c(Nc3ccc(Cl)cc3)n2)[C@@H](C#N)C1` (single isomer, unassigned) [Example 28-125, 3-[(4-chlorophenyl)amino]-1-[(1S,2S,4R or 1R,2R,4S)-2-cyano-4-(dimethylamino)cyclohexyl]-1H-pyrazole-4-carboxamide] as the compound, how does the IC50 read?
A: 2 nM

Q: How did the IC50 turn out when `CC1(N[C@@H]2CCC(n3cc(C(N)=O)c(Nc4ccc(Cl)cc4)n3)[C@@H](C#N)C2)CC1` (single isomer, unassigned) [Example 28-206, 3-[(4-chlorophenyl)amino]-1-{(1S,2S,4R or 1R,2R,4S)-2-cyano-4-[(1-methylcyclopropyl)amino]cyclo-hexyl}-1H-pyrazole-4-carboxamide] was run?
A: 12 nM

Q: For `N#C[C@H]1C[C@@H](NCC(F)(F)F)CC[C@@H]1n1cc(C(N)=O)c(Nc2ccc(Cl)cc2)n1` (single isomer, unassigned) [Example 28-224, 3-[(4-chlorophenyl)amino]-1-{(1S,2S,4S or 1R,2R,4R)-2-cyano-4-[(2,2,2-trifluoroethyl)amino]cyclo-hexyl}-1H-pyrazole-4-carboxamide], which IC50 is on record?
A: 3 nM

Q: With `N#C[C@H]1CCCC[C@@H]1n1cc(C(N)=O)c(Nc2cc(F)cc(Cl)c2)n1` (single isomer, unassigned) [Example 17-51, 3-[(3-chloro-5-fluorophenyl)amino]-1-[(1S,2S or 1R,2R)-2-cyanocyclohexyl]-1H-pyrazole-4-carboxamide] as the compound, how does the IC50 read?
A: 7 nM

Q: For `CC(C)NC(=O)O[C@H]1CCC(n2cc(C(N)=O)c(Nc3ccc(F)cc3)n2)[C@@H](C#N)C1` (mixture of isomers) [Example 34-8, (1S,3S,4S and 1R,3R,4R)-4-{4-carbamoyl-3-[(4-fluorophenyl)amino]-1H-pyrazol-1-yl}-3-cyanocyclohexyl propan-2-ylcarbamate], which IC50 is on record?
A: 6 nM

Q: `N#C[C@H]1CCCCC1n1cc(C(N)=O)c(Nc2ccc(S(=O)(=O)CC(F)(F)F)cc2)n1` (mixture of isomers) [Example 17-12, 1-[(1S,2S and 1R,2R)-2-cyanocyclohexyl]-3-({4-[(2,2,2-trifluoroethyl)sulfonyl]phenyl}amino)-1H-pyrazole-4-carboxamide] was tested. Which IC50 did it give?
A: 0.49 nM

Q: With `CC(C)(O)C1CC(CN[C@H]2CC[C@@H](n3cc(C(N)=O)c(Nc4ccc(C(F)(F)F)cc4)n3)[C@H](C#N)C2)C1` (single isomer, unassigned) [Example 30-4, 1-[(1R,2R,4S or 1S,2S,4R)-2-cyano-4-({[3-(1-hydroxy-1-methylethyl)cyclo-butyl]methyl}amino)cyclo-hexyl]-3-{[4-(trifluoro-methyl)phenyl]amino}-1H-pyrazole-4-carboxamide] as the compound, how does the IC50 read?
A: 1 nM

Q: With `COCC(C)(C)N[C@H]1CCC(n2cc(C(N)=O)c(Nc3ccc(Cl)cc3)n2)[C@@H](C#N)C1` (single isomer, unassigned) [Example 28-222, 3-[(4-chlorophenyl)amino]-1-{(1S,2S,4S or 1R,2R,4R)-2-cyano-4-[(2-methoxy-1,1-dimethylethyl)amino]cyclo-hexyl}-1H-pyrazole-4-carboxamide] as the compound, how does the IC50 read?
A: 0.8 nM

Q: How did the IC50 turn out when `C[C@@]1(O)CC[C@H](n2cc(C(N)=O)c(Nc3ccc(Cl)cc3)n2)[C@@H](C#N)C1` (single isomer, unassigned) [Example 32-13, 3-[(4-chlorophenyl)amino]-1-[(1S,2S,4R or 1R,2R,4S)-2-cyano-4-hydroxy-4-methylcyclohexyl]-1H-pyrazole-4-carboxamide] was run?
A: 3 nM

Q: Which IC50 does the source give for `N#C[C@@H]1CCCC[C@H]1n1cc(C(N)=O)c(Nc2ccc(F)nc2)n1` (single isomer, unassigned) [Example 17-23, 1-[(1R,2R or 1S,2S)-2-cyanocyclohexyl]-3-[(6-fluoropyridin-3-yl)amino]-1H-pyrazole-4-carboxamide] here?
A: 11 nM

Q: For `N#C[C@@H]1C[C@H](C(=O)N2CCC(F)(F)C2)CC[C@H]1n1cc(C(N)=O)c(Nc2ccc(Cl)cc2)n1` (single isomer, unassigned) [Example 35-32, 3-[(4-chlorophenyl)amino]-1-{(1R,2R,4R or 1S,2S,4S)-2-cyano-4-[(3,3-difluoropyrrolidin-1-yl)carbonyl]cyclohexyl}-1H-pyrazole-4-carboxamide], which IC50 is on record?
A: 5 nM

Q: `N#Cc1ccc(Nc2nn([C@H]3CC[C@H](NCC(F)F)C[C@@H]3C#N)cc2C(N)=O)cc1` (single isomer, unassigned) [Example 28-116, 1-{(1S,2S,4S or 1R,2R,4R)-2-cyano-4-[(2,2-difluoroethyl)amino]cyclohexyl}-3-[(4-cyanophenyl)amino]-1H-pyrazole-4-carboxamide] was tested. Which IC50 did it give?
A: 1 nM

Q: With `CC(C)N[C@H]1CC[C@H](n2cc(C(N)=O)c(Nc3ccc(S(=O)(=O)C(F)(F)F)cc3)n2)[C@@H](C#N)C1` (single isomer, unassigned) [Example 28-174, 1-{(1S,2S,4S or 1R,2R,4R)-2-cyano-4-[(1-methylethyl)amino]cyclohexy}-3-({4-[(trifluoro-methyl)sulfonyl]phenyl}amino)-1H-pyrazole-4-carboxamide] as the compound, how does the IC50 read?
A: 0.15 nM

Q: For `C[C@H](N[C@H]1CC[C@H](n2cc(C(N)=O)c(Nc3ccc(OC(F)F)nc3)n2)[C@@H](C#N)C1)C1CC1` (single isomer, unassigned) [Example 28-32, 1-[(1S,2S,4S or 1R,2R,4R)-2-cyano-4-{[(1S)-1-cyclopropylethyl]amino}cyclo-hexyl]-3-{[6-(difluoromethoxy)pyridin-3-yl]amino}-1H-pyrazole-4-carboxamide], which IC50 is on record?
A: 5 nM

Q: For `N#C[C@H]1CCCC[C@@H]1n1cc(C(N)=O)c(Nc2ccc(C(F)(F)F)cc2)n1` (single isomer, unassigned) [Example 17-105, 1-[(1S,2S or 1R,2R)-2-cyanocyclohexyl]-3-{[4-(trifluoromethyl)phenyl]amino}-1H-pyrazole-4-carboxamide], which IC50 is on record?
A: 2 nM

Q: With `CN(C)[C@@H]1CCC(n2cc(C(N)=O)c(Nc3ccc(S(=O)(=O)C(F)(F)F)cc3)n2)[C@@H](C#N)C1` (mixture of isomers) [Example 27-7, 1-[(1S,2S,4R and 1R,2R,4S)-2-cyano-4-(dimethylamino)cyclohexyl]-3-({4-[(trifluoromethyl)sulfonyl]phenyl}amino)-1H-pyrazole-4-carboxamide] as the compound, how does the IC50 read?
A: 0.4 nM
